Key:
Assay in all cases: relative viability (nuclei count vs DMSO), 5 days (fraction); higher = more cells survive
GSK-J4 + OSI-027 = compound: CCOC(=O)CCNc1cc(N2CCc3ccccc3CC2)nc(-c2ccccn2)n1 [GSK-J4] + COc1cccc2cc(-c3nc([C@H]4CC[C@H](C(=O)O)CC4)n4ncnc(N)c34)[nH]c12 [OSI-027] (partner 0.5 µM)
How it was run: (§1)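 Relative viability is defined as nuclei in treated wells over nuclei in vehicle wells. Duplicate plates were run and medians reported. Lung cancer cell lines in 1536-well plates were dosed by pin tool one day after seeding, with one drug or with a fixed anchor-drug dose plus five library-drug doses (not always all listed) in √10 steps, and nuclei were counted after 5 days.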

GSK-J4 + Linsitinib = compound: CCOC(=O)CCNc1cc(N2CCc3ccccc3CC2)nc(-c2ccccn2)n1 [GSK-J4] + C[C@]1(O)C[C@@H](c2nc(-c3ccc4ccc(-c5ccccc5)nc4c3)c3c(N)nccn32)C1 [Linsitinib] (partner 1 µM)
How it was run: as §1

GSK-J4 + Phenformin = compound: CCOC(=O)CCNc1cc(N2CCc3ccccc3CC2)nc(-c2ccccn2)n1 [GSK-J4] + N=C(N)NC(=N)NCCc1ccccc1 [Phenformin] (partner 250 µM)
How it was run: as §1

AZ3146 + Luminespib = compound: CN1CCC(CC1)OC2=CC(=C(C=C2)NC3=NC=C4C(=N3)N(C(=O)N4C)C5CCCC5)OC [AZ3146] + CCNC(=O)c1noc(-c2cc(C(C)C)c(O)cc2O)c1-c1ccc(CN2CCOCC2)cc1 [Luminespib] (partner 0.01 µM)
How it was run: as §1

Row | Cell Line | relative viability (GSK-J4 + OSI-027; first compound 0.5 µM) | relative viability (GSK-J4 + OSI-027; first compound 1.581 µM) | relative viability (GSK-J4 + OSI-027; first compound 5 µM) | relative viability (GSK-J4 + OSI-027; first compound 15.81 µM) | relative viability (GSK-J4 + OSI-027; first compound 50 µM) | relative viability (GSK-J4 + Linsitinib; first compound 0.5 µM) | relative viability (GSK-J4 + Linsitinib; first compound 1.581 µM) | relative viability (GSK-J4 + Linsitinib; first compound 5 µM) | relative viability (GSK-J4 + Linsitinib; first compound 15.81 µM) | relative viability (GSK-J4 + Linsitinib; first compound 50 µM) | relative viability (GSK-J4 + Phenformin; first compound 0.5 µM) | relative viability (GSK-J4 + Phenformin; first compound 1.581 µM) | relative viability (GSK-J4 + Phenformin; first compound 5 µM) | relative viability (GSK-J4 + Phenformin; first compound 15.81 µM) | relative viability (GSK-J4 + Phenformin; first compound 50 µM) | relative viability (AZ3146 + Luminespib; first compound 0.08 µM) | relative viability (AZ3146 + Luminespib; first compound 0.253 µM) | relative viability (AZ3146 + Luminespib; first compound 0.8 µM) | relative viability (AZ3146 + Luminespib; first compound 2.53 µM) | relative viability (AZ3146 + Luminespib; first compound 8 µM)
1 | SW 1573 | 0.657 | 0.423 | 0.507 | 0.519 | 0.211 | 0.81 | 0.755 | 0.802 | 0.703 | 0.595 | 0.315 | 0.326 | 0.336 | 0.262 | 0.247 | 0.699 | 0.14 | 0.393 | 0.204 | 0.273
2 | CAL-12T | 0.631 | 0.646 | 0.778 | 0.61 | 0.528 | 0.856 | 0.776 | 0.776 | 0.742 | 0.648 | 0.702 | 0.549 | 0.532 | 0.554 | 0.42 | 0.267 | 0.573 | 0.423 | 0.556 | 0.341
3 | NCI-H1734 | 0.544 | 0.518 | 0.489 | 0.445 | 0.372 | 0.884 | 0.72 | 0.818 | 0.757 | 0.816 | 0.425 | 0.365 | 0.328 | 0.332 | 0.31 | 0.181 | 0.198 | 0.689 | 0.198 | 0.2
4 | LCLC-97TM1 | 0.443 | 0.357 | 0.574 | 0.342 | 0.269 | – | – | 0.213 | 0.23 | 0.146 | 0.369 | 0.327 | 0.397 | 0.339 | 0.264 | 0.825 | 0.673 | 0.647 | 0.814 | 0.878
5 | EBC-1 | – | – | – | – | – | 0.937 | 0.758 | 0.789 | 0.795 | 0.709 | – | – | – | – | – | – | – | – | – | –
6 | ChaGo-K-1 | 0.591 | 0.419 | 0.441 | 0.533 | 0.428 | – | – | – | – | – | 0.488 | 0.49 | 0.438 | 0.475 | 0.422 | 0.651 | 0.528 | 0.618 | 0.816 | 0.588
7 | NCI-H2170 | 0.692 | 0.696 | 0.718 | 0.702 | 0.524 | – | – | – | – | – | 0.38 | 0.352 | 0.341 | 0.387 | 0.275 | 0.703 | 0.827 | 0.755 | 0.576 | 0.616
8 | NCI-H2342 | 0.669 | 0.626 | 0.662 | 0.615 | 0.699 | – | – | – | – | – | 0.652 | 0.629 | 0.573 | 0.706 | 0.595 | 0.624 | 0.719 | 0.901 | 0.698 | 0.688
9 | NCI-H522 | 0.78 | 0.637 | 0.541 | 0.585 | 0.543 | – | – | – | – | – | 0.64 | 0.656 | 0.595 | 0.543 | 0.588 | 1.1 | 1.03 | 1.2 | 1.13 | 1.18
10 | HCC-78 | 0.351 | 0.355 | 0.727 | 0.368 | 0.409 | 0.44 | 0.499 | 0.701 | – | 0.484 | 0.87 | 0.731 | 0.946 | 0.588 | 0.528 | – | – | – | – | –

Source: the supplement of paper PMC10307832
